Test results taken from ChEMBL document CHEMBL1145145, “Design and synthesis of o-trifluoromethylbiphenyl substituted 2-amino-nicotinonitriles as inhibitors of farnesyltransferase” (Bioorg Med Chem Lett, 2005).

How the values were obtained:
[1] = molecular target: Protein farnesyltransferase (Bos taurus, UniProt P29702+P49355); experiment: Inhibition of Bovine farnesyl transferase; assay type: protein-complex assay
[2] = molecular target: T1, Protein farnesyltransferase (Mus musculus, UniProt Q61239+Q8K2I1); experiment: Effective concentration against H-ras processing in transformed NIH3T3 cells; assay type: functional, cell-based
[3] = molecular target: Geranylgeranyl transferase type I (Bos taurus, UniProt P29702+Q5EAD5); experiment: Inhibition of Bovine geranylgeranyl transferase; assay type: protein-complex assay
[4] = molecular target: Protein farnesyltransferase (Homo sapiens, UniProt P49354+P49356); experiment: Inhibition of Farnesyl transferase inhibitor (ABT-839); assay type: protein-complex assay
[5] = molecular target: Protein farnesyltransferase (Bos taurus) (UniProt P29702+P49355); experiment: Percentage inhibition of Bovine farnesyl transferase at 100 nM; assay type: protein-complex assay
[6] = molecular target: T1, Protein farnesyltransferase; experiment: Inhibition of H-ras processing in transformed NIH3T3 cells
[7] = molecular target: T1, Protein farnesyltransferase; experiment: Effective concentration against H-ras processing in NIH 3T3 cells; assay type: functional, cell-based, NIH3T3
[8] = species on record: Bos taurus; experiment: Selectivity for Bovine farnesyl transferase over geranylgeranyl transferase

IC50 [1] [nM]	EC50 [2] [nM]	IC50 [3] [nM]	SMILES	further results
13	–	–	Cc1ccccc1-c1cc(C(OCc2ccc(-c3ccccc3)cc2)c2cncn2C)ccc1C#N (stereo not drawn)	–
7.5	–	–	Cc1ccccc1-c1cc(C(OCc2ccc([N+](=O)[O-])cc2)c2cncn2C)ccc1C#N (stereo not drawn)	–
13	–	–	Cc1ccccc1-c1cc(C(OCc2cccc(Br)c2)c2cncn2C)ccc1C#N (stereo not drawn)	–
13	–	–	Cc1ccccc1-c1cc(C(OCc2cc(Cl)nc(Cl)c2)c2cncn2C)ccc1C#N (stereo not drawn)	–
59	–	–	Cc1ccccc1-c1cc(C(OCc2cccc3cccnc23)c2cncn2C)ccc1C#N (stereo not drawn)	–
2.6	130	1800	CC(=O)N1CCN(c2nc(COC(c3ccc(C#N)c(-c4ccccc4C(F)(F)F)c3)c3cncn3C)ccc2C#N)CC1 (stereo not drawn)	–
54	–	–	Cc1ccc(COC(c2ccc(C#N)c(-c3ccccc3C)c2)c2cncn2C)cc1 (stereo not drawn)	–
12	–	–	Cc1ccccc1-c1cc(C(OCc2ccc(Br)cc2)c2cncn2C)ccc1C#N (stereo not drawn)	–
1.3	89	1200	Cn1cncc1C(OCc1ccc(C#N)c(N2CCOCC2)n1)c1ccc(C#N)c(-c2ccccc2C(F)(F)F)c1 (stereo not drawn)	–
32	–	–	Cc1ccccc1-c1cc(C(OCc2ccc(F)cc2)c2cncn2C)ccc1C#N (stereo not drawn)	–
61	–	–	Cc1cccc(COC(c2ccc(C#N)c(-c3ccccc3C)c2)c2cncn2C)c1 (stereo not drawn)	–
87	–	–	Cc1ccccc1-c1cc(C(OCc2ccc(C(C)(C)C)cc2)c2cncn2C)ccc1C#N (stereo not drawn)	–
4.1	100	120	Cn1cncc1C(OCc1ccc(F)c(C(F)(F)F)c1)c1ccc(C#N)c(-c2ccccc2C(F)(F)F)c1 (stereo not drawn)	–
11	–	–	Cc1ccccc1-c1cc(C(OCc2ccc(Cl)cc2)c2cncn2C)ccc1C#N (stereo not drawn)	–
2.7	90	1500	Cn1cncc1C(OCc1ccc(C#N)cn1)c1ccc(C#N)c(-c2ccccc2C(F)(F)F)c1 (stereo not drawn)	–
3.6	210	680	Cn1cncc1C(OCc1ccc(C#N)c(N2CCC[C@@H]2C(=O)O)n1)c1ccc(C#N)c(-c2ccccc2C(F)(F)F)c1 (stereo partly drawn)	–
62	–	–	Cc1ccccc1-c1cc(C(OCc2ccccc2C#N)c2cncn2C)ccc1C#N (stereo not drawn)	–
38	–	–	Cc1ccccc1-c1cc(C(OCc2cccc(F)c2)c2cncn2C)ccc1C#N (stereo not drawn)	–
8.1	–	–	Cc1ccccc1-c1cc(C(OCc2cccc(C(F)(F)F)c2)c2cncn2C)ccc1C#N (stereo not drawn)	–
–	85	310	Cn1cncc1C(OCc1ccc(C#N)cc1)c1ccc(C#N)c(-c2ccccc2C(F)(F)F)c1 (stereo not drawn)	–
2.1	> 1000	130	Cc1cccc(-c2cc(C(OCc3ccc(C#N)cc3)c3cncn3C)ccc2C#N)c1C (stereo not drawn)	–
3.5	120	970	Cn1cncc1C(OCc1ccc(C#N)c(N2CCC(O)C2)n1)c1ccc(C#N)c(-c2ccccc2C(F)(F)F)c1 (stereo not drawn)	–
1.3	13	1400	Cn1cncc1C(OCc1ccc(C#N)c(N2CCCC(O)C2)n1)c1ccc(C#N)c(-c2ccccc2C(F)(F)F)c1 (stereo not drawn)	–
33	–	–	Cc1ccccc1-c1cc(C(OCc2ccccc2[N+](=O)[O-])c2cncn2C)ccc1C#N (stereo not drawn)	–

IC50 [1] [nM]	EC50 [2] [nM]	IC50 [3] [nM]	SMILES	further results
19	–	–	Cc1ccccc1-c1cc(C(OCc2cc(Cl)cc(Cl)c2)c2cncn2C)ccc1C#N (stereo not drawn)	–
7.5	285	2400	Cn1cncc1C(OCc1ccc(C#N)c(NCC2CCCO2)n1)c1ccc(C#N)c(-c2ccccc2C(F)(F)F)c1 (stereo not drawn)	IC50 [4]: 1.1 nM
–	–	–	Cc1ccccc1-c1cc(C(OCc2noc(-c3ccccc3)n2)c2cncn2C)ccc1C#N (stereo not drawn)	inhibition [5]: 56%
1.8	11	1400	Cn1cncc1C(OCc1ccc(C#N)c(N2CCC(CO)CC2)n1)c1ccc(C#N)c(-c2ccccc2C(F)(F)F)c1 (stereo not drawn)	–
51	–	–	Cc1ccccc1-c1cc(C(OCc2ccc(C(C)C)cc2)c2cncn2C)ccc1C#N (stereo not drawn)	–
48	–	–	Cc1ccccc1-c1cc(C(OCc2ccccc2Cl)c2cncn2C)ccc1C#N (stereo not drawn)	–
59	–	–	COc1ccc(COC(c2ccc(C#N)c(-c3ccccc3C)c2)c2cncn2C)cc1 (stereo not drawn)	–
81	–	–	Cc1ccccc1-c1cc(C(OCc2c(Cl)cccc2Cl)c2cncn2C)ccc1C#N (stereo not drawn)	–
27	–	–	Cc1ccccc1-c1cc(C(OCc2ccc(Cl)c(Cl)c2)c2cncn2C)ccc1C#N (stereo not drawn)	–
2	170	920	Cn1cncc1C(OCc1ccc(C#N)c(N2CCC[C@@H]2CO)n1)c1ccc(C#N)c(-c2ccccc2C(F)(F)F)c1 (stereo partly drawn)	–
61	–	–	COC(=O)c1cccc(COC(c2ccc(C#N)c(-c3ccccc3C)c2)c2cncn2C)c1 (stereo not drawn)	–
9	–	3900	COC(=O)c1ccc(COC(c2ccc(C#N)c(-c3ccccc3C(F)(F)F)c2)c2cncn2C)nc1 (stereo not drawn)	inhibition [6]: 83%
–	–	–	COC(=O)c1ccc(COC(c2ccc(C#N)c(-c3ccccc3C)c2)c2cncn2C)o1 (stereo not drawn)	inhibition [5]: 50%
–	110	–	Cn1cncc1C(OCc1ccc(C#N)cc1)c1ccc(C#N)c(-c2cccc3ccccc23)c1 (stereo not drawn)	–
1.2	53	2600	CN1CCN(c2nc(COC(c3ccc(C#N)c(-c4ccccc4C(F)(F)F)c3)c3cncn3C)ccc2C#N)CC1 (stereo not drawn)	–
13	–	–	Cc1ccccc1-c1cc(C(OCc2ccc(I)cc2)c2cncn2C)ccc1C#N (stereo not drawn)	–
12	–	–	Cc1ccccc1-c1cc(C(OCc2ccc(C(F)(F)F)cc2)c2cncn2C)ccc1C#N (stereo not drawn)	–
1.7	330	1600	CC(=O)NC1CCN(c2nc(COC(c3ccc(C#N)c(-c4ccccc4C(F)(F)F)c3)c3cncn3C)ccc2C#N)C1 (stereo not drawn)	–
6.1	> 1000	160	Cn1cncc1C(OCc1ccc(C(F)(F)F)c(F)c1)c1ccc(C#N)c(-c2ccccc2C(F)(F)F)c1 (stereo not drawn)	–
6.1	–	–	COC(=O)c1ccc(COC(c2ccc(C#N)c(-c3ccccc3C)c2)c2cncn2C)cc1 (stereo not drawn)	–
9.1	> 1000	2300	Cn1cncc1C(OCc1ccc(C#N)c(NCCc2ccccc2)n1)c1ccc(C#N)c(-c2ccccc2C(F)(F)F)c1 (stereo not drawn)	–
7.7	201	2200	Cn1cncc1C(OCc1ccc(C#N)c(NCC2CCOC2)n1)c1ccc(C#N)c(-c2ccccc2C(F)(F)F)c1 (stereo not drawn)	–
84	–	1300	Cc1ccccc1-c1cc(C(OCc2ccccc2)c2cncn2C)ccc1C#N (stereo not drawn)	EC50 [7]: 2700 nM; Selectivity [8]: 16
4	–	–	Cc1ccccc1-c1cc(C(OCc2ccc(C#N)cc2)c2cncn2C)ccc1C#N (stereo in doubt; 4q)	–

IC50 [1] [nM]	EC50 [2] [nM]	IC50 [3] [nM]	SMILES	further results
20	–	–	Cc1ccccc1-c1cc(C(OCc2cccc(I)c2)c2cncn2C)ccc1C#N (stereo not drawn)	–
14	> 1000	–	Cn1cncc1C(OCc1ccc(C#N)cc1)c1ccc(C#N)c(-c2ccccc2C(=O)O)c1 (stereo not drawn)	–
17	–	–	Cc1ccccc1-c1cc(C(OCc2cccc3ccccc23)c2cncn2C)ccc1C#N (stereo not drawn)	–
1.5	240	85	Cn1cncc1C(OCc1ccc(C#N)cc1)c1ccc(C#N)c(-c2cccc(Cl)c2Cl)c1 (stereo not drawn)	–
70	–	–	Cc1ccccc1-c1cc(C(OCc2ccccc2F)c2cncn2C)ccc1C#N (stereo not drawn)	–
–	–	–	CCCCN(CCC1CCCCC1)Cc1ccc(C(=O)N[C@@H](CCSC)C(=O)O)c(-c2ccccc2C)c1	Selectivity [8]: 75000
1.3	30	2000	Cn1cncc1C(OCc1ccc(C#N)c(N2CCN(CCO)CC2)n1)c1ccc(C#N)c(-c2ccccc2C(F)(F)F)c1 (stereo not drawn)	–
4.8	420	180	Cc1ccccc1-c1cc(C(OCc2ccc(C#N)cc2)c2cncn2C)ccc1C#N (stereo in doubt; 10a)	–
29	–	–	Cc1ccccc1-c1cc(C(OCc2csc(-c3ccc(Cl)cc3)n2)c2cncn2C)ccc1C#N (stereo not drawn)	–
5.5	–	480	Cn1cncc1C(OCc1ccc(C#N)cc1)c1ccc(C#N)c(-c2ccccc2CO)c1 (stereo not drawn)	inhibition [6]: 89%
1.7	–	72	Cn1cncc1C(OCc1ccc(Cl)c(Cl)c1)c1ccc(C#N)c(-c2ccccc2C(F)(F)F)c1 (stereo not drawn)	–
19	–	–	Cc1ccccc1-c1cc(C(OCc2cccc(Cl)c2)c2cncn2C)ccc1C#N (stereo not drawn)	–
10	–	750	Cn1cncc1C(OCc1ccc(C#N)c(NCc2cccc(F)c2)n1)c1ccc(C#N)c(-c2ccccc2C(F)(F)F)c1 (stereo not drawn)	–
1.9	110	–	Cn1cncc1C(OCc1ccc(C#N)cc1)c1ccc(C#N)c(-c2ccccc2C=O)c1 (stereo not drawn)	–
160	–	–	Cn1cncc1C(OCc1ccc(C#N)cc1)c1ccc(C#N)c(-c2cc3ccccc3s2)c1 (stereo not drawn)	–
8.3	–	–	Cc1ccccc1-c1cc(C(OCc2cccc(OC(F)(F)F)c2)c2cncn2C)ccc1C#N (stereo not drawn)	–
47	> 1000	–	Cn1cncc1C(OCc1ccc(C#N)cc1)c1ccc(C#N)c(-c2ccc(Cl)cc2Cl)c1 (stereo not drawn)	–
38	–	–	Cc1ccccc1-c1cc(C(OCc2ccc(S(C)(=O)=O)cc2)c2cncn2C)ccc1C#N (stereo not drawn)	–
16	–	–	Cc1ccccc1-c1cc(C(OCc2ccc(OC(F)(F)F)cc2)c2cncn2C)ccc1C#N (stereo not drawn)	–
54	–	–	Cc1ccccc1COC(c1ccc(C#N)c(-c2ccccc2C)c1)c1cncn1C (stereo not drawn)	–
15	–	–	Cc1ccccc1-c1cc(C(OCc2cnc(Cl)c(Cl)c2)c2cncn2C)ccc1C#N (stereo not drawn)	–
–	–	–	Cc1ccccc1-c1cc(C(OCc2ccc3ccccc3c2)c2cncn2C)ccc1C#N (stereo not drawn)	inhibition [5]: 76%
–	–	–	Cc1ccccc1-c1cc(C(OCc2ccccc2Br)c2cncn2C)ccc1C#N (stereo not drawn)	inhibition [1]: 65%
